{
  "source": "patent US11179450B2",
  "about": "“Long chain antigen containing interepitope sequence that promotes antigen presentation to T cells” (MIE UNIVERSITY, priority 2013, dated 2021)",
  "tested_on": "CD8+ T cells specific to MA p265, NY p81 and mERK2 9m",
  "test": "Specific CD8+ T cell induction by CHP/long chain peptide vaccines in mice, intracellular cytokine staining of spleen cells",
  "type": "in vivo, BALB/c mice",
  "from_the_text": "Long chain peptide antigens MEN, all containing three types of mouse CD8+ T cell epitope sequences (MA p265 (Sequence No. 27), NY p81 (Sequence No. 29), and mERK2 9m (Sequence No. 28)), were synthesized. The interepitope sequences between the respective epitopes were respectively six consecutive tyrosines (Y6) (Sequence No. 1), six consecutive glycines (G6) (Sequence No. 2), six consecutive prolines (P6) (Sequence No. 3), or six consecutive threonines (T6) (Sequence No. 4). Each long chain peptide antigen was complexed with cholesterol-modified pullulan (CHP), which is a type of delivery system, and administered as a vaccine to a mouse. In the process of administration, CpG oligo DNA was coadministered as an adjuvant. Spleen cells were collected one week after the final administration and the frequencies of CD8+ T cells specific to the respective epitope sequences were measured by an intracellular cytokine staining method.\nLong chain peptide antigens NME, all containing three types of mouse CD8+ T cell epitope sequences (MA p265 (Sequence No. 27), NY p81 (Sequence No. 29), and mERK2 9m (Sequence No. 28)), were synthesized. The antigens differ from the MEN sequences shown in FIG. 1 in the order of the three types of epitopes. The interepitope sequences between the respective epitopes were respectively six consecutive tyrosines (Y6) (Sequence No. 5), six consecutive glycines (G6) (Sequence No. 6), or six consecutive prolines (P6) (Sequence No. 7). Vaccines containing the respective long chain peptide antigens were administered to mice in the same manner as in FIG. 1 and the frequencies of CD8+ T cells specific to the respective epitope sequences were measured by the intracellular cytokine staining method.\nLong chain peptide antigens MEN, ENM, and NME, all containing three types of mouse CD8+ T cell epitope sequences (MA p265 (Sequence No. 27), NY p81 (Sequence No. 29), and mERK2 9m (Sequence No. 28)), were synthesized. MEN, ENM, and […] in the order of the three types of epitopes. The interepitope sequences between the respective epitopes were each six consecutive tyrosines (Y6) (Sequence Nos. 1, 5 and 8). Vaccines containing the respective long chain peptide antigens were administered to mice in the same manner as in FIG. 1 and the frequencies of CD8+ T cells specific to the respective epitope sequences were measured by the intracellular cytokine staining method.\nEach long chain peptide was dissolved in dimethyl sulfoxide (DMSO) at a concentration of 10 mg/mL. CHP was dissolved in 6 M urea-containing phosphate buffered saline (PBS) at a concentration of 10 mg/mL 1 mL (10 mg) of the long chain peptide solution and 20 mL (200 mg) of the CHP solution were mixed and left to stand at room temperature overnight in a dark place. The liquid mixture was transferred into a dialysis membrane (molecular weight cutoff: 3,500; Thermo Fisher Scientific, Inc.) and dialyzed for 2 hours to overnight at 4° C. against 0.6 M urea-containing PBS of a volume ratio of not less than 100 times as the dialysis outer solution. Dialysis was then performed for 2 hours to overnight at 4° C. against 0.06 M urea-containing PBS of a volume ratio of not less than 100 times as the dialysis outer solution. Dialysis was performed again for 2 hours to overnight at 4° C. against PBS of a volume ratio of not less than 100 times as the dialysis outer solution. The dialyzed inner solution was collected, filtered through a filtration sterilization filter of 0.45 μm or 0.22 μm pore size, and thereafter the UV absorption at 280 nm was measured to determine the final concentration of the long chain peptide from its molecular extinction coefficient.\nEach CHP/long chain peptide complex as the vaccine and the CpG oligo DNA as the adjuvant were administered at the same time to a mouse. Administration was performed by subcutaneous injection on the back of the mouse. […]",
  "data": [
    {"sequence": "SNPARYEFLYYYYYYQYIHSANVLYYYYYYRGPESRLL (Long chain peptide antigen, containing three types of mouse CD8+ T cell epitope sequences (MA p265, NY p81, and mERK2 9m)) [MEN(Y6)]", "values": [
      {"measurement": "induction of specific CD8+ T cells corresponding to all three types of epitopes", "setting": "FIG. 1, MEN antigens complexed with CHP, subcutaneous, CpG oligo DNA adjuvant, spleen cells one week after final administration", "result": "clearly induced"},
      {"measurement": "induction of specific CD8+ T cells corresponding to all three types of epitopes", "setting": "FIG. 4, MEN, ENM, NME epitope orders, interepitope sequence fixed at Y6", "result": "clearly induced"},
      {"measurement": "number of tyrosines of the interepitope sequence, judged in view of the results for the three types of epitopes", "setting": "FIG. 6, comparing one to six tyrosines", "result": "best"},
      {"measurement": "number of tyrosines of the interepitope sequence, judged in view of the results for the three types of epitopes", "setting": "FIG. 7, comparing five to ten tyrosines", "result": "best"}
    ]}
  ]
}
